In patent US20260109672A1, “SARS-COV-2 MPRO INHIBITORS AND USES THEREOF” (NXERA PHARMA UK LIMITED, priority 2022, published 2026):

Assays:
[1] = biological target: T1, SARS-CoV-2 Mpro (Severe acute respiratory syndrome coronavirus 2, UniProt P0DTD1); assay: SARS-CoV-2 Mpro enzyme assay (FRET); format: biochemical; settings: 20 nM Mpro, 30 min preincubation at 30° C., mean n=2, read-out: SARS-CoV-2 Mpro enzyme pKi assay pKi (converted)
[2] = system: P-glycoprotein (P-gp, MDR1); assay: MDCK-MDR1 permeability and P-gp substrate assay; format: in vitro ADME, canine; settings: dog, pH 7.4, MDCK-MDR1, apical to basolateral, without P-gp inhibitor
Method: Permeability and drug efflux of certain example compounds was investigated using the following assay.
Test compound was added to either the apical side of a confluent monolayer of MDCK-MDR1 (Madin-Darby canine kidney cells stably transfected to express active P-glycoprotein) and permeability was measured by monitoring the appearance of the test compound on the basolateral side of the monolayer using LC-MS/MS. Experiments were performed in the absence and presence of a P-glycoprotein (P-gp) inhibitor elacridar (2 μM) to determine whether the compound was subject to P-gp mediated efflux.
MDCK-MDR1 cells obtained from the NIH (Rockville, MD, USA) were used between passage numbers 6-30. […]
For assessment of A-B permeability, HBSS was removed from the apical compartment and replaced with test compound dosing solution or test compound plus P-gp inhibitor dosing solutions. […] Test compound permeability was assessed in duplicate. […]
Test and control compounds were quantified by LC-MS/MS cassette analysis using a 7-point calibration with appropriate dilution of the samples. The starting concentration (C0) was determined from the dosing solution and the experimental recovery calculated from C0 and both apical and basolateral compartment concentrations.
The permeability coefficient (Papp) for each compound in the absence and presence of a P-gp inhibitor was calculated from the following equation: […]

[3] = Pedersen et al.; cited from earlier work
[4] = system: ten further coronavirus strains; settings: read-out: Ki values against ten further coronavirus strains; cited from earlier work
[5] = system: live virus; settings: cited from earlier work
[6] = system: SARS-CoV-2 infection; settings: approved in selected countries for limited use; Zhou et al.; cited from earlier work
[7] = biological target: T1, SARS-CoV-2 Mpro; assay: Modified SARS-CoV-2 Mpro enzyme assay (FRET, kinetic read) for reference examples; format: biochemical; settings: 5 nM Mpro, 20 min preincubation at room temperature, mean n=2, set out in PCT/GB2022/050836, read-out: SARS-CoV-2 Mpro enzyme pKi assay pKi (converted)

Molecule	Ki [1] [nM]	also measured
CNC(=O)C(=O)C(CC1CC1)NC(=O)[C@@H]1[C@@H]2[C@H](CN1C(=O)[C@@H](NC(=O)C(F)(F)F)C(C)(C)C)C2(C)C (stereo partly drawn) [Example 2, (1R,2S,5S)-N-[1-(cyclopropylmethyl)-3-(methylamino)-2,3-dioxo-propyl]-3-[(2S)-3,3-dimethyl-2-[(2,2,2-trifluoroacetyl)amino]butanoyl]-6,6-dimethyl-3-azabicyclo[3.1.0]hexane-2-carboxamide]	20	Papp A→B at 60 min, 1 μM [2]: 2.2 ×10⁻⁶ cm/s
CC(C)(C)[C@H](NC(=O)C(F)(F)F)C(=O)N1C[C@H]2[C@@H]([C@H]1C(=O)NC(C[C@H]1CCCNC1=O)C(=O)C(=O)NC1CC1)C2(C)C (stereo partly drawn) [Example 6, (1R,2S,5S)-N-[3-(cyclopropylamino)-2,3-dioxo-1-[[(3R)-2-oxo-3-piperidyl]methyl]propyl]-3-[(2S)-3,3-dimethyl-2-[(2,2,2-trifluoroacetyl)amino]butanoyl]-6,6-dimethyl-3-azabicyclo[3.1.0]hexane-2-carboxamide]	10	
CC(C)C[C@H](NC(=O)OCc1ccccc1)C(=O)N[C@@H](C[C@@H]1CCNC1=O)C(O)S(=O)(=O)[O-].[Na+] (some centres unmarked) [GC376]		Side effects in trials performed in cats [3]: side effects
CC(C)C(=O)N[C@H](C(=O)N1C[C@H]2[C@@H]([C@H]1C(=O)NC(C[C@@H]1CCNC1=O)C(=O)C(=O)NC1CC1)C2(C)C)C(C)(C)C (some centres unmarked) [Example 5]	15.8	
PF-00835231		Ki [4]: 0.03 to 4 nM; Activity in cell-based live virus assays [5]: ~1 µM
CC1(C)[C@@H]2[C@@H](C(=O)NC(C[C@@H]3CCNC3=O)C(=O)C(=O)NC3CC3)N(C(=O)/C=C/c3ccc(F)cc3F)C[C@@H]21 (stereo partly drawn) [Example 7, (1R,2S,5S)-N-(4-(cyclopropylamino)-3,4-dioxo-1-((S)-2-oxopyrrolidin-3-yl)butan-2-yl)-3-((E)-3-(2,4-difluorophenyl)acryloyl)-6,6-dimethyl-3-azabicyclo[3.1.0]hexane-2-carboxamide]	63.1	
CC(C)(C)[C@H](NC(=O)C(F)(F)F)C(=O)N1C[C@H]2[C@@H]([C@H]1C(=O)NC(C[C@@H]1CCNC1=O)C(=O)C(=O)NC1CC1)C2(C)C (stereo partly drawn) [Example 1, (1R,2S,5S)-N-(4-(cyclopropylamino)-3,4-dioxo-1-((S)-2-oxopyrrolidin-3-yl)butan-2-yl)-3-((S)-3,3-dimethyl-2-(2,2,2-trifluoroacetamido)butanoyl)-6,6-dimethyl-3-azabicyclo[3.1.0]hexane-2-carboxamide]	3.98	Papp A→B at 60 min, 1 μM [2]: 0.9 ×10⁻⁶ cm/s
NC(=O)c1nc(F)c[nH]c1=O [favipiravir]		Effect in treatment of SARS-CoV-2 infection [6]: modest effects
CC(C)[C@H](NC(=O)C(F)(F)F)C(=O)N1C[C@H]2[C@@H]([C@H]1C(=O)NC(CC1CC1)C(=O)C(N)=O)C2(C)C (stereo partly drawn) [Example 3, (1R,2S,5S)-N-[3-amino-1-(cyclopropylmethyl)-2,3-dioxo-propyl]-6,6-dimethyl-3-[(2S)-3-methyl-2-[(2,2,2-trifluoroacetyl)amino]butanoyl]-3-azabicyclo[3.1.0]hexane-2-carboxamide]	63.1	
CC(C)C(=O)N[C@H](C(=O)N1C[C@H]2[C@@H]([C@H]1C(=O)NC(CC1CC1)C(=O)C(=O)C#N)C2(C)C)C(C)(C)C (some centres unmarked) [Example 27]		Ki [7]: > 5010 nM
CC(C)(C)[C@H](NC(=O)C(F)(F)F)C(=O)N1C[C@H]2[C@@H]([C@H]1C(=O)NC(CC1CCC1)C(=O)C(N)=O)C2(C)C (stereo partly drawn) [Example 4, (1R,2S,5S)-N-[3-amino-1-(cyclobutylmethyl)-2,3-dioxo-propyl]-3-[(2S)-3,3-dimethyl-2-[(2,2,2-trifluoroacetyl)amino]butanoyl]-6,6-dimethyl-3-azabicyclo[3.1.0]hexane-2-carboxamide]	79.4	
